Laboratory results reported in publication PMC6570502 (Chembiochem : a European journal of chemical biology, 2019).
Residue numbers refer to the chain shown, from its start.

Assays:
[1] = biological target: T1, KDM4A N198A mutant (Homo sapiens, UniProt O75164, N198A); test: MALDI demethylase assay, H3K9me3 substrate peptide, N198A mutant; type: biochemical
T1 sequence (O75164 1-1064 N198A): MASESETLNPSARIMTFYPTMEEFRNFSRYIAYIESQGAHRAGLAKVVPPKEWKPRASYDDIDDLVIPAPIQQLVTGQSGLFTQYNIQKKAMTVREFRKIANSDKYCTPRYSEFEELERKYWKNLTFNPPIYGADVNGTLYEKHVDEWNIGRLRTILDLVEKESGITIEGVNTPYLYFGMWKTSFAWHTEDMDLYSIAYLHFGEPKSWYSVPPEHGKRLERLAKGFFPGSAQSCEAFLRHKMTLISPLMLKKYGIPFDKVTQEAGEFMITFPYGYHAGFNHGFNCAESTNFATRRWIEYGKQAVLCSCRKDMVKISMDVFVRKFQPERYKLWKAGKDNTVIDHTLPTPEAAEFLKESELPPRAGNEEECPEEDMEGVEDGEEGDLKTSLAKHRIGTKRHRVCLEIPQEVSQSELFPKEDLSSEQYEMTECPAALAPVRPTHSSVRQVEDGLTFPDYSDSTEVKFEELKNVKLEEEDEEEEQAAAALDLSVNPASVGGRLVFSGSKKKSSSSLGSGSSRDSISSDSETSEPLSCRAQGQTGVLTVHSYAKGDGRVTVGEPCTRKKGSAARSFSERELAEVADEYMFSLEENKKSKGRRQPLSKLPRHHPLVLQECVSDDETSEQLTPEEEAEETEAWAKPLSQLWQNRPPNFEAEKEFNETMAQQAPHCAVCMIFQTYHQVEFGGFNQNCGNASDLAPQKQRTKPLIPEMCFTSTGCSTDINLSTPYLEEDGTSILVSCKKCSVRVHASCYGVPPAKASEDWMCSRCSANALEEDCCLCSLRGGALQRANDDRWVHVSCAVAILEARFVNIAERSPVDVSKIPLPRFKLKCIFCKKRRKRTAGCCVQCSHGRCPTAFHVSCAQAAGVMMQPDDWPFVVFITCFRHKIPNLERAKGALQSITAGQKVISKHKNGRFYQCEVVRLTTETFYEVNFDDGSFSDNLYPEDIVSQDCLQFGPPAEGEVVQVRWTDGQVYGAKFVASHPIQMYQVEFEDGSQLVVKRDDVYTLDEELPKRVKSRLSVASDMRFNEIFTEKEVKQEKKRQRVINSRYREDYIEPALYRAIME

[2] = biological target: T2, KDM4A N198G mutant (Homo sapiens, UniProt O75164, N198G); test: MALDI demethylase assay, H3K9me3 substrate peptide, N198G mutant; type: biochemical
T2 sequence (O75164 1-1064 N198G): T1 sequence (O75164 1-1064 N198A) with A198G

[3] = 100 μM compound, 50 μM 2KG, MALDI-MS
[4] = scaffold test under the optimized assay conditions (50 μM 2KG), Figure S7

| inhibition of demethylase activity [1, 3] | inhibition of demethylase activity [1, 4] | inhibition of demethylase activity [2, 3] | inhibition of demethylase activity [2, 4] | Compound |
| --- | --- | --- | --- | --- |
| significantly inhibited | inhibited | significantly inhibited | inhibited | O=C(O)CNC(=O)C(=O)O [compound 2, N-oxalylglycine] |
| – | inhibited | – | inhibited | O=C(O)c1ccc(O)c2ncccc12 [IOX1, 5-carboxy-8-hydroxyquinone] |
